Read-outs that look alike come from different tables or passages of the source.
Experiments:
[1] = system: human PBMCs activated with Poly r(I:C); assay: cells; type: cell-based; details: for EC50: read-out: EC50 for reduction of cytokine release (TNFalpha production) from human PBMCs
[2] = system: Influenza A/Duck/MN/1525/81 (H5N1); parameters: species or system mice; details: mouse, in vivo
[3] = system: Influenza A/Duck/MN/1525/81 (H5N1); parameters: species or system mice; details: mouse, in vivo; remark: listed apart in the source
[4] = system: Influenza A/Duck/MN/1525/81 (H5N1); parameters: species or system mice; details: mouse, in vivo; remark: listed apart in the source
[5] = system: Influenza A/Duck/MN/1525/81 (H5N1); parameters: species or system mice; details: mouse, in vivo; remark: listed apart in the source
[6] = system: Influenza A/Duck/MN/1525/81 (H5N1); parameters: species or system mice; details: mouse, in vivo; remark: listed apart in the source

## CC#CC[C@H](C)[C@H](O)/C=C/[C@@H]1[C@H]2c3cccc(CCCC(=O)[O-])c3O[C@H]2C[C@H]1O.[Na+] (single isomer, unassigned; isomer a) [Isomer A]
[1]
  EC50: 4 nM
[2]
  MDD (mean day of death): 13
  Survival: 4/10
[3]
  Average % loss (animal weight loss as percent of initial weight): 76%
[4]
  Lung score, Mean: 2.00
  Lung weight, Mean: 0.22 grams
[5]
  Mean number of cells (lung): 1.15
[6]
  Lung cytokine concentration, CCL2 Average: 953 pg/mL
  Lung cytokine concentration, IFNg Average: 1046 pg/mL
  Lung cytokine concentration, IL-6 Average: 521 pg/mL
  Lung cytokine concentration, IL-10 Average: 223 pg/mL
  Lung cytokine concentration, IL-12 Ave: 3800 pg/mL

## CC#CCC(C)C(O)C=CC1C(O)CC2Oc3c(CCCC(=O)O)cccc3C21 (single isomer, unassigned; isomer d) [Isomer D]
[1]
  EC50 for reduction of cytokine release (TNFalpha production) from human PBMCs: No
[2]
  MDD (mean day of death): 7
  Survival: 0/10
[3]
  Average % loss (animal weight loss as percent of initial weight): 68%
[4]
  Lung score, Mean: 3.50
  Lung weight, Mean: 0.37 grams
[6]
  Lung cytokine concentration, CCL2 Average: 2347 pg/mL
  Lung cytokine concentration, IFNg Average: 2074 pg/mL
  Lung cytokine concentration, IL-6 Average: 1291 pg/mL
  Lung cytokine concentration, IL-10 Average: 758 pg/mL
  Lung cytokine concentration, IL-12 Ave: 2603 pg/mL

## CC#CCC(C)C(O)C=CC1C(O)CC2Oc3c(CCCC(=O)[O-])cccc3C21.[Na+] (centres unmarked) [Beraprost, 2,3,3a,8b-tetrahydro-2-hydroxyl-1-(3-hydroxyl-4-methyl-1-octen-6-ynyl)-1H-cyclopenta[b]benzofuran-5-butanoic acid, sodium salt]
[1]; Homo sapiens, PBMC, 18 h
  EC50: 11 nM
[2]
  MDD (mean day of death): 11.5
  Survival: 3/10
[3]
  Average % loss (animal weight loss as percent of initial weight): 76%
[4]
  Lung score, Mean: 2.0
  Lung weight, Mean: 0.24 grams
[5]
  Mean number of cells (lung): 2.63
[6]
  Lung cytokine concentration, CCL2 Average: 1308 pg/mL
  Lung cytokine concentration, IFNg Average: 1601 pg/mL
  Lung cytokine concentration, IL-6 Average: 604 pg/mL
  Lung cytokine concentration, IL-10 Average: 621 pg/mL
  Lung cytokine concentration, IL-12 Ave: 3517 pg/mL

Reference: patent publication US20140275237A1, “BERAPROST ISOMER AS AN AGENT FOR THE TREATMENT OF VIRAL INFECTION” (priority 2013, published 2014)
